Measured values from patent US7727989B2, “4-benzimidazol-2-yl-pyridazine-3-one-derivatives, production and use thereof in medicaments” (Sanofi-Aventis Deutschland GmbH, priority 2004, dated 2010).

Molecular target: human recombinant GSK-3β (Homo sapiens, UniProt P49841)
Test: GSK-3β activity, AlphaScreen, primed glycogen synthase substrate peptide
Type: biochemical
Conditions: not given
Method: Functional measurements to ascertain IC50 values:
GSK-3β activity is measured using human recombinant GSK-3β and a primed (pre-phosphorylated) substrate peptide (derived from glycogen synthase and containing the phosphorylation sites 3a, b, and c) on the basis of the AlphaScreen technology in 384-well plate format (small volume plate, white, Greiner). […] After adding […] Donor beads (20 μg/ml) and […] antibody (anti-phosphoglycogen synthase 1:2000)-coated Acceptor beads (40 μg/ml) in AlphaScreen detection buffer (20 mM Hepes, pH 7.4, 10 mM MgCl, 40 mM EDTA, 1 mM DTT, 0.1 mg/ml BSA), plates are incubated at room temperature (in the dark) overnight and then placed in a reader (Alphaquest or Fusion) to measure final fluorescence. IC50 values are calculated from the fitted curve corrected for bank values (absence of GSK-3β) and performed in triplicate.

Sequence of human recombinant GSK-3β (P49841 whole entry): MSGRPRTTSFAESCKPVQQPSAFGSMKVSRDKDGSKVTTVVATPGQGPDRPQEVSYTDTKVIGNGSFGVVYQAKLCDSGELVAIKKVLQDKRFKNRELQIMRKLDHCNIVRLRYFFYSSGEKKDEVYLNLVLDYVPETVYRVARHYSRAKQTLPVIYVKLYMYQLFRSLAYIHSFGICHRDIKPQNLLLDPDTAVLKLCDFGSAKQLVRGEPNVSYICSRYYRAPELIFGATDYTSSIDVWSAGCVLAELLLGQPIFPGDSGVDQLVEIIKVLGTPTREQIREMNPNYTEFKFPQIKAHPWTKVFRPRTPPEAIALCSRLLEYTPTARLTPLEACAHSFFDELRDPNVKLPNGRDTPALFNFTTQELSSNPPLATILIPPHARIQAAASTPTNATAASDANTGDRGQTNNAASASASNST

SMILES | IC50 [µM]
Cn1cc(-c2cc(-c3nc4ccccc4[nH]3)c(=O)[nH]n2)ccc1=O [Example 50, 4-(1H-Benzimidazol-2-yl)-6-(1-methyl-6-oxo-1,6-dihydropyridin-3-yl)-2H-pyridazin-3-one] | 0.157

Same assay, conditions: human recombinant GSK-3β 0.18 nM, biot. phospho-glycogen synthase peptide 34 nM, 10 μM ATP, 60 min room temperature, triplicate; read-out: IC50

SMILES | IC50 [µM]
O=c1[nH]nc(-c2ccncc2)cc1-c1nc2cc(C(F)(F)F)ccc2[nH]1 [Example 6, 4-(6-Tri-fluoromethyl-1H-benzimidazol-2-yl)-6-pyridin-4-yl-2H-pyridazin-3-one] | 0.016
O=c1[nH]nc(-c2ccncc2)cc1-c1nc2ccncc2[nH]1 [Example 38, 4-(3H-imidazol[4,5-c]pyridin-2-yl)-6-pyridin-4-yl-2H-pyridazin-3-one] | 0.032
O=c1[nH]nc(-n2ccnc2)cc1-c1nc2ccccc2[nH]1 [Example 68, 4-(1H-Benzimidazol-2-yl)-6-imidazol-1-yl-2H-pyridazin-3-one] | 0.063
Cc1cc(-c2cc(-c3nc4ccc(C(F)(F)F)cc4[nH]3)c(=O)[nH]n2)cc(C)c1O [Example 25, 6-(4-Hydroxy-3,5-dimethylphenyl)-4-(6-tri-fluoromethyl-1H-benzimidazol-2-yl)-2H-pyridazin-3-one] | 0.056
CN1CCN(Cc2ccc3nc(-c4cc(-c5ccncc5)n[nH]c4=O)[nH]c3c2)CC1 [Example 42, 4-[6-(4-Methylpiperazin-1-ylmethyl)-1H-benzimidazol-2-yl]-6-pyridin-4-yl-2H-pyridazin-3-one] | 0.007
O=c1[nH]nc(-c2ccnc(NC3CC3)n2)cc1-c1nc2ccccc2[nH]1 [Example 58, 4-(1H-Benzimidazol-2-yl)-6-(2-cyclopropylaminopyrimidin-4-yl)-2H-pyridazin-3-one] | 0.05
O=c1[nH]nc(-c2ccsc2)cc1-c1nc2ccccc2[nH]1 [Example 46, 4-(1H-Benzimidazol-2-yl)-6-thiophen-3-yl-2H-pyridazin-3-one] | 0.028
CN1CCN(Cc2ccc3nc(-c4cc(-c5ccccc5)n[nH]c4=O)[nH]c3c2)CC1 [Example 53, 4-[6-(4-Methylpiperazin-1-ylmethyl)-1H-benzimidazol-2-yl]-6-phenyl-2H-pyridazin-3-one] | 0.042
N#Cc1ccc2[nH]c(-c3cc(-c4ccncc4)n[nH]c3=O)nc2c1 [Example 21, 4-(5-Cyano-1H-benzimidazol-2-yl)-6-pyridin-4-yl-2H-pyridazin-3-one] | 0.057

Tested on: not given
Test: not given
Conditions: not given

SMILES | melting point
O=C(NCCCO)c1ccc2nc(-c3cc(-c4ccncc4)n[nH]c3=O)[nH]c2c1 [Example 10, 2-(3-Oxo-6-pyridin-4-yl-2,3-dihydropyridazin-4-yl)-1H-benzimidazole-5-carboxylic acid (3-hydroxypropyl)amide] | > 300 °C (dec.)
O=c1[nH]nc(-c2ccncc2)cc1-c1nc2cc(C(F)(F)F)ccc2[nH]1 [Example 6, 4-(6-Tri-fluoromethyl-1H-benzimidazol-2-yl)-6-pyridin-4-yl-2H-pyridazin-3-one] | > 300 °C (dec.)
O=c1[nH]nc(-c2ccncc2)cc1-c1nc2ccccc2[nH]1 [Example 28, 4-(1H-Benzimidazol-2-yl)-6-pyridin-4-yl-2H-pyridazin-3-one] | > 350 °C (dec.)
O=c1[nH]nc(-c2ccncc2)cc1-c1nc2cc(Cl)ccc2[nH]1 [Example 5, 4-(6-Chloro-1H-benzimidazol-2-yl)-6-pyridin-4-yl-2H-pyridazin-3-one] | > 300 °C (dec.)
O=c1[nH]nc(-c2ccncc2)cc1-c1nc2ccc(Br)cc2[nH]1 [Example 22, 4-(5-Bromo-1H-benzimidazol-2-yl)-6-pyridin-4-yl-2H-pyridazin-3-one] | > 350 °C (dec.)
Cc1cc(-c2nc3cc(Cl)ccc3[nH]2)c(=O)[nH]n1 [Example 11, 4-(5-Chloro-1H-benzimidazol-2-yl)-6-methyl-2H-pyridazin-3-one] | > 300 °C (dec.)
COc1ccc2nc(-c3cc(-c4ccncc4)n[nH]c3=O)[nH]c2c1 [Example 7, 4-(6-Methoxy-1H-benzimidazol-2-yl)-6-pyridin-4-yl-2H-pyridazin-3-one] | > 300 °C (dec.)
Cc1cccc2nc(-c3cc(-c4ccncc4)n[nH]c3=O)[nH]c12 [Example 17, 4-(7-Methyl-1H-benzimidazol-2-yl)-6-pyridin-4-yl-2H-pyridazin-3-one] | > 350 °C (dec.)
Cc1cc2nc(-c3cc(-c4ccncc4)n[nH]c3=O)[nH]c2cc1C [Example 18, 4-(5,6-Dimethyl-1H-benzimidazol-2-yl)-6-pyridin-4-yl-2H-pyridazin-3-one] | > 350 °C (dec.)
CNc1nccc(-c2cc(-c3nc4cc(Cl)ccc4[nH]3)c(=O)[nH]n2)n1 [Example 14, 4-(5-Chloro-1H-benzimidazol-2-yl)-6-(2-methylaminopyrimidin-4-yl)-2H-pyridazin-3-one] | > 300 °C (dec.)
CN1CCN(CCCNC(=O)c2ccc3nc(-c4cc(-c5ccncc5)n[nH]c4=O)[nH]c3c2)CC1 [Example 9, 2-(3-Oxo-6-pyridin-4-yl-2,3-dihydropyridazin-4-yl)-1H-benzimidazole-5-carboxylic acid [3-(4-methylpiperazin-1-yl)propyl]amide] | > 300 °C
CN1CCN(c2ccc3[nH]c(-c4cc(-c5ccncc5)n[nH]c4=O)nc3c2)CC1 [Example 19, 4-[5-(4-Methylpiperazin-1-yl)-1H-benzimidazol-2-yl]-6-pyridin-4-yl-2H-pyridazin-3-one] | > 350 °C (dec.)
O=c1[nH]nc(-c2ccncc2)cc1-c1nc2cc(F)ccc2[nH]1 [Example 20, 4-(5-Fluoro-1H-benzimidazol-2-yl)-6-pyridin-4-yl-2H-pyridazin-3-one] | > 350 °C (dec.)
CCCCNc1nccc(-c2cc(-c3nc4ccc(Cl)cc4[nH]3)c(=O)[nH]n2)n1 [Example 26, 6-(2-Butylaminopyrimidin-4-yl)-4-(6-chloro-1H-benzimidazol-2-yl)-2H-pyridazin-3-one] | 305 °C
O=C(NCCNC1CCCCC1)c1ccc2nc(-c3cc(-c4ccncc4)n[nH]c3=O)[nH]c2c1 [Example 8, 2-(3-Oxo-6-pyridin-4-yl-2,3-dihydropyridazin-4-yl)-1H-benzimidazole-5-carboxylic acid (2-cyclohexylaminoethyl)amide] | 271 °C
N#Cc1ccc2[nH]c(-c3cc(-c4ccncc4)n[nH]c3=O)nc2c1 [Example 21, 4-(5-Cyano-1H-benzimidazol-2-yl)-6-pyridin-4-yl-2H-pyridazin-3-one] | > 350 °C (dec.)
CCCCNc1nccc(-c2cc(-c3nc4ccc(C(F)(F)F)cc4[nH]3)c(=O)[nH]n2)n1 [Example 27, 6-(2-Butylaminopyrimidin-4-yl)-4-(6-tri-fluoromethyl-1H-benzimidazol-2-yl)-2H-pyridazin-3-one] | 288 °C
